Several values for one entry are separate records, joined by “and”; a condition that tells them apart may be missing. Equal entries are not always repeated.
Experiments:
Type in all cases: cell-based
[1] = test system: Pseudomonas aeruginosa
[2] = test system: Staphylococcus aureas
[3] = test system: Pseudomonas aeruginosa and Staphylococcus aureas

## CC/C=C/CCCCCCCC(=O)NCCN1CC[N+](C)=C1CCCCCCC/C=C/CC [C12-13, C12 DETA Quat]
[1]
  % Kill: 27.1% and 13.7%
[2]
  % Kill: 48.3% and 33.1%
[3]
  Overall Rating: good

Reference: US9573884B2 (priority 2010, dated 2017)
